# Patent US12522576B2, “Polymorphs of D9-THC naphthoylester” (priority 2019, dated 2026)
# How the values were obtained:
# [1] = D9 solubility in the liquors at isolation temperature; assay type: physicochemical; details: 25 °C, organic solvent or mixture, thermodynamic from solid
# Protocol: At the end of each experiment, suspensions were equilibrated at the isolation temperature (25 or 5° C.) for at least 18 hours and the solids and liquors separated by centrifugation at the isolation temperature. The Exo/D9/D8 ratio (Exo-D9-THC-naphthoylester impurity/D9-THC-naphthoylester/D8-THC-naphthoylester) was determined in both the isolated solids and the liquors, from which the % Exo-depletion in the isolated solids was calculated. Several solids were also isolated at elevated temperatures to assess the impact of the isolation temperature on Exo-impurity depletion.
# In addition, the solubility of D9 in the liquors was determined in most of the explored solvents and used to estimate the yield.
# [2] = Visual solubility of Form B; assay type: physicochemical
# Protocol: Solubility of D9-THC-naphthoylester, Form B (Batch 2) was determined by visual assessment in various solvents at RT and 50° C. Aliquots of solvent were added to 20 mg of solids at room temperature and 25 mg of solids at 50° C. until complete dissolution or until a maximum volume of 1 mL was added.
smiles,measurement,setting,value
"CCCCCc1cc(OC(=O)c2ccc3ccccc3c2)c2c(c1)OC(C)(C)[C@@H]1CCC(C)=C[C@@H]21 [Form B, (6aR,10aR)-6a,7,8,10a-tetrahydro-6,6,9-trimethyl-3-pentyl-6H-dibenzo[b,d]pyran-1-yl ester]",solubility,"[1]; crystallisation liquors over suspended solid, batch 5, Toluene/MeOH (1:9), seed G, heat T 40, isolation T 25, SP 8, 30.0 mL/g",8.4 mg/mL
same,solubility,"[1]; crystallisation liquors over suspended solid, batch 5, Toluene/MeOH (3:7), seed G, heat T 40, isolation T 25, SP 3, 5.5 mL/g",53.5 mg/mL
same,solubility,"[1]; crystallisation liquors over suspended solid, batch 5, n-BuOH, seed E/G, heat T 50, isolation T 25, SP 3, 9.8 mL/g",14.8 mg/mL
same,solubility,"[1]; crystallisation liquors over suspended solid, batch 5, n-BuOH, seed G, heat T 40, isolation T 25, SP 8, 10.0 mL/g",16.7 mg/mL
same,solubility,"[1]; liquors of the equilibrated crystallisation suspension, batch 2, IPA/water (95:5), seed G/H, heat T 55, isolation T 25, 10.0 mL/g, SP 13, Exp 43",5.6 mg/mL
same,solubility,"[1]; liquors of the equilibrated crystallisation suspension, batch 2, IPA/water (99:1), seed G/H, heat T 55, isolation T 25, 10.0 mL/g, SP 13, Exp 45",7.3 mg/mL
same,solubility,"[1]; liquors of the equilibrated crystallisation suspension, batch 5, Cyclohexanone/EtOH (1:9), seed G/H, heat T 55, isolation T 25, 5.0 mL/g, SP 16, Exp 32",21.1 mg/mL
same,solubility,"[1]; liquors of the equilibrated crystallisation suspension, batch 5, Cyclohexanone/IPA (1:9), seed G/H, heat T 45, isolation T 25, 2.5 mL/g, SP 15, Exp 39",59.2 mg/mL
same,solubility,"[1]; liquors of the equilibrated crystallisation suspension, batch 5, Cyclohexanone/MeOH (1:9), seed G/H, heat T 60, isolation T 25, 10.0 mL/g, SP 12, Exp 30",7.6 mg/mL
same,solubility,"[1]; liquors of the equilibrated crystallisation suspension, batch 5, EtOAc/EtOH (1:9), seed H, heat T 55, isolation T 25, 10.0 mL/g, SP 21, Exp 28",12 mg/mL
same,solubility,"[1]; liquors of the equilibrated crystallisation suspension, batch 5, EtOAc/IPA (1:9), seed G/H, heat T 55, isolation T 25, 7.4 mL/g, SP 15, Exp 35",15.1 mg/mL
same,solubility,"[1]; liquors of the equilibrated crystallisation suspension, batch 5, IPA/water (95:5), seed G/H, heat T 60, isolation T 25, 10.0 mL/g, SP 12, Exp 29",4.5 mg/mL
same,solubility,"[1]; liquors of the equilibrated crystallisation suspension, batch 5, IPA, seed G/H, heat T 50, isolation T 25, 10.0 mL/g, SP 14, Exp 31",7.3 mg/mL
same,solubility,"[1]; liquors of the equilibrated crystallisation suspension, batch 5, MEK/EtOH (1:9), seed G/H, heat T 55, isolation T 25, 10.0 mL/g, SP 15, Exp 40",11.2 mg/mL
same,solubility,"[1]; liquors of the equilibrated crystallisation suspension, batch 5, MEK/IPA (1:9), seed G/H, heat T 55, isolation T 25, 5.0 mL/g, SP 15, Exp 25",17.2 mg/mL
same,solubility,"[1]; liquors of the equilibrated crystallisation suspension, batch 5, MEK/MeOH (1:9), seed G/H, heat T 60, isolation T 25, 10.0 mL/g, SP 12, Exp 27",4.5 mg/mL
same,solubility,"[1]; liquors of the equilibrated crystallisation suspension, batch 5, Toluene/EtOH (5:95), seed H, heat T 55, isolation T 25, 12.0 mL/g, SP 21, Exp 33",10.3 mg/mL
same,solubility,"[1]; n-BuOH/MeOH (1:3), batch 5, n-BuOH/MeOH (1:3), seed E/G, heat T 50, isolation T 25, SP 3, 9.4 mL/g",5.6 mg/mL
same,solubility,"[1]; n-BuOH/MeOH (1:3), batch 5, n-BuOH/MeOH (1:3), seed G, heat T 60, isolation T 25, SP 9, 10.0 mL/g",6 mg/mL
same,solubility,"[1]; p-Xylene/MeOH (1:9), batch 5, p-Xylene/MeOH (1:9), seed G, heat T 25, isolation T 25, SP 7, 40.0 mL/g",9.8 mg/mL
same,solubility,"[2]; alcohols, organic solvent or mixture, thermodynamic from solid, read-out: Solubility",< 10 mg/mL
same,solubility,"[2]; common organic solvents, organic solvent or mixture, thermodynamic from solid, read-out: Solubility",> 100 mg/mL
same,solubility,"[2]; organic solvent or mixture, thermodynamic from solid, solvent 1,4-Dioxane, RT, read-out: Visual Solubility at RT",> 404 mg/mL
same,solubility,"[2]; organic solvent or mixture, thermodynamic from solid, solvent 2Me-THF, RT, read-out: Visual Solubility at RT",> 368 mg/mL
same,solubility,"[2]; organic solvent or mixture, thermodynamic from solid, solvent Acetone/MeOH (1:3), 50° C., read-out: Visual Solubility at 50° C.",25 to 40 mg/mL
same,solubility,"[2]; organic solvent or mixture, thermodynamic from solid, solvent Acetone/MeOH (1:3), RT, read-out: Visual Solubility at RT",10 to 20 mg/mL
same,solubility,"[2]; organic solvent or mixture, thermodynamic from solid, solvent Acetone, RT, read-out: Visual Solubility at RT",94 to 376 mg/mL
same,solubility,"[2]; organic solvent or mixture, thermodynamic from solid, solvent BuOH/MeOH (1:3), 50° C., read-out: Visual Solubility at 50° C.",26 to 51 mg/mL
same,solubility,"[2]; organic solvent or mixture, thermodynamic from solid, solvent BuOH/MeOH (1:3), RT, read-out: Visual Solubility at RT",< 10 mg/mL
same,solubility,"[2]; organic solvent or mixture, thermodynamic from solid, solvent Cyclohexane, RT, read-out: Visual Solubility at RT",92 to 368 mg/mL
same,solubility,"[2]; organic solvent or mixture, thermodynamic from solid, solvent DCM, RT, read-out: Visual Solubility at RT",> 404 mg/mL
same,solubility,"[2]; organic solvent or mixture, thermodynamic from solid, solvent DMSO, 50° C., read-out: Visual Solubility at 50° C.",25 to 50 mg/mL
same,solubility,"[2]; organic solvent or mixture, thermodynamic from solid, solvent DMSO, RT, read-out: Visual Solubility at RT",18 to 46 mg/mL
same,solubility,"[2]; organic solvent or mixture, thermodynamic from solid, solvent EtOAc, RT, read-out: Visual Solubility at RT",> 372 mg/mL
same,solubility,"[2]; organic solvent or mixture, thermodynamic from solid, solvent EtOH, 50° C., read-out: Visual Solubility at 50° C.",25 to 50 mg/mL
same,solubility,"[2]; organic solvent or mixture, thermodynamic from solid, solvent EtOH, RT, read-out: Visual Solubility at RT",< 9 mg/mL
same,solubility,"[2]; organic solvent or mixture, thermodynamic from solid, solvent Heptane, 50° C., read-out: Visual Solubility at 50° C.",127 to 254 mg/mL
same,solubility,"[2]; organic solvent or mixture, thermodynamic from solid, solvent Heptane, RT, read-out: Visual Solubility at RT",20 to 51 mg/mL
same,solubility,"[2]; organic solvent or mixture, thermodynamic from solid, solvent IPA:water (9:1), 50° C., read-out: Visual Solubility at 50° C.",< 27 mg/mL
same,solubility,"[2]; organic solvent or mixture, thermodynamic from solid, solvent IPA:water (9:1), RT, read-out: Visual Solubility at RT",< 10 mg/mL
same,solubility,"[2]; organic solvent or mixture, thermodynamic from solid, solvent IPA, 50° C., read-out: Visual Solubility at 50° C.",25 to 50 mg/mL
same,solubility,"[2]; organic solvent or mixture, thermodynamic from solid, solvent IPA, RT, read-out: Visual Solubility at RT",< 10 mg/mL
same,solubility,"[2]; organic solvent or mixture, thermodynamic from solid, solvent MIBK, RT, read-out: Visual Solubility at RT",105 to 420 mg/mL
same,solubility,"[2]; organic solvent or mixture, thermodynamic from solid, solvent MTBE, RT, read-out: Visual Solubility at RT",93 to 372 mg/mL
same,solubility,"[2]; organic solvent or mixture, thermodynamic from solid, solvent MeCN, 50° C., read-out: Visual Solubility at 50° C.",25 to 50 mg/mL
same,solubility,"[2]; organic solvent or mixture, thermodynamic from solid, solvent MeCN, RT, read-out: Visual Solubility at RT",9 to 18 mg/mL
same,solubility,"[2]; organic solvent or mixture, thermodynamic from solid, solvent MeOH, 50° C., read-out: Visual Solubility at 50° C.",< 25 mg/mL
same,solubility,"[2]; organic solvent or mixture, thermodynamic from solid, solvent MeOH, RT, read-out: Visual Solubility at RT",< 9 mg/mL
same,solubility,"[2]; organic solvent or mixture, thermodynamic from solid, solvent THF/MeOH (1:1), RT, read-out: Visual Solubility at RT",98 to 392 mg/mL
same,solubility,"[2]; organic solvent or mixture, thermodynamic from solid, solvent Toluene, RT, read-out: Visual Solubility at RT",> 376 mg/mL
same,solubility,"[2]; thermodynamic from solid, solvent Water, 50° C., read-out: Visual Solubility at 50° C.",< 24 mg/mL
same,solubility,"[2]; thermodynamic from solid, solvent Water, RT, read-out: Visual Solubility at RT",< 9 mg/mL
same,solubility,[2]; water,poorly soluble
